The record followed here is patent publication US20240109917A1 (ACTELION PHARMACEUTICALS LTD, priority 2020, published 2024).

Where two headings read alike, the source gives them in different places.

One experiment addresses PDGFRβ (Rattus norvegicus (Rat), UniProt Q05030). Briefly: PDGFRβ Cellular Assay (PDGFRb P-Y751 HTRF in A10 cells stimulated with PDGF-BB). It is filed as cell-based. The procedure:
(§1) II. Methods and Procedures
Cell Culture and Preparation: Cells are cultured according to ATCC procedure (5) with the addition of the antibiotic penicillin-streptomycin. If working from frozen, cells should be thawed according to ATCC procedure. Depending on the cell density of frozen vial, cells will need time to recover from thaw. An 80% confluent T75 flask should be enough for one 384 well plate.
Stock Solutions: Rat PDGFBB. A 100 ug/mL stock is prepared by reconstituting 50 ug in 500 uL of 4 mM HCl and 0.1% BSA. It can be stored for a month at 4° C., or aliquoted out and frozen in the −20/−80° C. to avoid multiple free-thaw cycles.
(§2) Freshly Prepared Solutions:
1× Cisbio cell lysis buffer. The cell lysis buffer is diluted 4-fold with molecular grade water. The blocking agent is then diluted 25-fold in the diluted lysis buffer.
Antibody solutions. Equal amounts d2 and cryptate antibody are diluted 20-fold in detection buffer.
Rat PDGFBB. A working stock of 100 ng/mL is created from the stock solution in 10% FBS culture media.
Step 1: Plating Cells: Media from the A10 cell flask is aspirated. The cells are rinsed with PBS and then trypsinized to disperse the cell layer. The cells are then pelleted are resuspended to 1.25e5 cells/mL. […] Plates are covered and placed in the incubator (37° C. 5% CO2) overnight to allow cells to adhere.
Step 2: Compound Dispense: Approximately 18 hours after plating, dispense 40 nL compound onto cells using Echo. Column 12 is the neutral control DMSO, column 24 is the inhibitor control 10 mM Imatinib (10 uM final assay concentration). The plate is returned to the incubator for 3 hours.
After 10 minutes the media is removed by flicking the plate.
Step 4: Cell lysis and antibody addition: 20 uL lysis buffer per well is added to the plate via Tempest. 5 uL antibody solution is added per well via the Tempest. The plate is placed on the shaker at 230 rpm for 1 hour at room temperature.
Step 5: Detection: The plate is read using the HTRF module on the BMG Pherastar. Data is analyzed using Genedata Screener.
(§3) III. Calculations and Formulas
% Inhibition: % Inhibition=(NC−sample)/(NC−PC)*100 where NC is the mean of negative control (reactions without inhibitor), and PC is the mean of positive control (10 μM imatinib).
IC50 values are determined from a 4-parameter fit, using the following equation: Y=Bottom+(Top−Bottom)/(1+10((Log IC50−X)*Hill slope)), where X=log10 of the compound concentration; top can be defined by PC; bottom defined by NC.

The next experiment deals with VEGFR2, unphosphorylated (Homo sapiens (Human), UniProt P35968). Put plainly: VEGFR ADP GLO Assay. It is filed as biochemical. The procedure: as §1
Assay buffer stock contains 50 mM HEPES pH7.5, 10 mM MgCl2, 0.01% Brij-35, and 1 mM EGTA.
Unphosphorylated VEGFR2. […] Store at −80° C. in aliquots.
Sonicate 10 mg/ml Srctide solution for 10 minutes and then vacuum filter.
Freshly Prepared Solutions
2× kinase solution. Make a working solution of 10 nM unphosphorylated VEGFR2 in Assay buffer. Vacuum filter 2× kinase solution prior to running assay. Keep on ice until use.
2× substrate/ATP solution. Make a working solution of 2 mg/mL srctide and 2.4 mM ATP in Assay buffer. Keep on ice until use.
Step 1. Dispensing inhibitors/controls: Using Echo, dispense 10 nL/well compound serial dilutions in DMSO to columns 1-22 (in 384-well plates) or columns 1-44 (in 1536-well plates). Dilution series=11 pt, 3-fold dilutions. The top compound concentration in the source plate is 4 mM. The top compound concentration in the assay plate is 10 uM. Using Echo, dispense 10 nl/well DMSO to column 23 (in 384-well plates) or columns 45-47 (in 1536-well plates). […] These wells will serve as positive control wells.
Step 2. Pre-incubation of inhibitors with kinase: Add 2 μL/well 2× kinase solution. Centrifuge at 1000 rpm for 1 min. Incubate at room temperature for 30 min.
Step 3. Kinase cascade reaction: Add 2 μL/well 2× substrate/ATP solution to initiate kinase reactions. Centrifuge at 1000 rpm for 1 min. Incubate at room temperature for 180 min.
Final concentrations of components in the assay:
Step 4. Quench: Add 2 uL/well ADP Glo Reagent+0.05% CHAPS. Centrifuge at 1000 rpm for 1 min; Incubate at room temperature for one hour.
Step 5. Detection: Add 2 uL/well Kinase Detection Reagent+0.05% CHAPS. Centrifuge at 1000 rpm for 1 min; Incubate at room temperature for 1 hour; Read Luminescence on a plate reader.
as §3
IC50 values are determined from a 4-parameter fit, using the following equation: Y=Bottom+(Top−Bottom)/(1+10^(Log IC50-X)*Hill slope) where X=log10 of the compound concentration; top can be defined by PC; bottom defined by NC.
(In general: In ADP-Glo the light output rises with the ADP produced.)

Experiment [1] deals with His6-TEV-PDGFRβ (557-1016) (Homo sapiens (Human), UniProt P09619). Put plainly: PDGFRβ HTRF Assay. It is filed as biochemical. Particulars: read-out: PDGFR HTRF IC50. The procedure: Instrumentation: a. Compound liquid handling: LabCyte Echo; b. Reagent liquid handling: Thermo Scientific Multidrop Combi; c. BMG PHERAStar multilabel plate reader.
Protein Reagent: His6-TEV-PDGFRβ Protein Prep prepared at Accelagen.
as §1
Assay buffer stock solution, contains 50 mM Hepes, 10 mM MgCl2, 1 mM EGTA, and 0.01% Brij-35, 0.01% ovalbumin, 2 mM DTT at pH 7.5, in molecular biology grade water. Store at room temperature.
DTT, 2 M in molecular biology grade water, store at −20° C. in aliquots.
Ovalbumin, 10% or 100 mg/mL, prepare fresh on experimental day.
PDGFRβ, 116 μM (PDGFRb_08 Prep 02), produced at Accelagen. Store at −80° C. in aliquots.
TK-biotin peptide, […] in molecular biology grade water, store at −20° C. in aliquots.
ATP, 100 mM in molecular biology grade water, store at −20° C. in aliquots.
HTRF KinEASE-TK kit: Allow the contents of the Cisbio kit to warm up to room temperature before use. This kit contains HTRF detection buffer, TK-Antibody labeled with Eu^3+-cryptate, TK-substrate biotin and Streptavidin-XL665.
TK Substrate-Biotin, reconstitute 500 μg lyopholized with 574 μL molecular biology grade water to prepare a 500 μM stock; After use, aliquot the rest and store at −20° C.
TK Antibody-Cryptate, reconstitute lyophilized with 1 mL of molecular biology grade water (100× solution) then add 99 mL detection buffer to prepare a ready to use TK-antibody-cryptate solution; the concentration of the TK-antibody-cryptate reagent is not known. After use, aliquot the rest and store at −20° C.
Streptavidin-XL665, reconstitute 3 mg lyophilized with 3 mL molecular biology grade water to prepare a 1 mg/mL or 16.67 μM stock; MW=60 kDa; After use, aliquot the rest and store at −20° C.
as §2
Assay buffer. Dilute 5× Kinase buffer 5-fold with molecular biology grade water and add DTT to 2 mM and ovalbumin to 0.1 mg/mL (or 0.01%).
2× protein solution. Make a working solution of […] PDGFRβ in assay buffer. Keep on ice until use to maintain enzyme stability.
2× substrate solution. Make a working solution of 1.6 mM ATP and 1 μM TK-substrate biotin peptide in assay buffer.
3× quench/detection solution. Make a working solution of 0.1875 μM SA-XL665 and the TK-antibody cryptate diluted by 12 of total quench/detection volume in assay buffer.
Keep final streptavidin/biotin ratio at 1 to 8.
Example of 3× quench/detection solution preparation: 8 mL total volume.
TK antibody-cryptate in detection buffer—4000 μL
The kinase reaction is stopped by the addition of the detection reagents which contain EDTA (detection step).
Assay in white ProxiPlate 384-well
Step 1. Dispensing inhibitors/DMSO and low control: Using the ECHO 555 acoustic dispenser, spot desired compound serial dilutions in DMSO, NEAT DMSO to represent the uninhibited enzyme control, and 10 μM final [imatinib] to the represent the 100% inhibited enzyme control
Step 2. PDGFRβ E+I pre-incubation: Add 2 μL 2× protein solution to columns 1-24 using the Multidrop Combi. Centrifuge at 1000 rpm for 1 min. Incubate 30 min at RT
Step 2. Enzymatic reaction: Add 2 μL substrate solution to columns 1-24 to initiate the reaction using the Multidrop Combi; cover/seal the assay plate to reduce evaporation. Centrifuge at 1000 rpm for 1 min. Incubate at room temperature for 3 hours.
Step 3. Quench/Detection: Add 2 μl 3× quench/detection solution to columns 1-24 using the Multidrop Combi; cover/seal the plate. Centrifuge 1 min 1000 rpm. Incubate at RT for 60 min. Read the plate in PHERAstar (or similar instrument) on HTRF setting at excitation 337 nm—dual emission—665/620 nm ratio.
as §3
HTRF ratio values calculated by the instrument (Ratio is acceptor counts/donor counts*10,000) is exported from the plate reader and used in data analysis. […] Assay statistics can include Robust Z′ and Signal to Background.
% Inhibition Calculation: Percent inhibition will be calculated for sample wells based on the equation: […]
(Time-resolved FRET reads energy transfer from a long-lived donor to a nearby acceptor.)

Sequence of PDGFRβ (Q05030 32-1097): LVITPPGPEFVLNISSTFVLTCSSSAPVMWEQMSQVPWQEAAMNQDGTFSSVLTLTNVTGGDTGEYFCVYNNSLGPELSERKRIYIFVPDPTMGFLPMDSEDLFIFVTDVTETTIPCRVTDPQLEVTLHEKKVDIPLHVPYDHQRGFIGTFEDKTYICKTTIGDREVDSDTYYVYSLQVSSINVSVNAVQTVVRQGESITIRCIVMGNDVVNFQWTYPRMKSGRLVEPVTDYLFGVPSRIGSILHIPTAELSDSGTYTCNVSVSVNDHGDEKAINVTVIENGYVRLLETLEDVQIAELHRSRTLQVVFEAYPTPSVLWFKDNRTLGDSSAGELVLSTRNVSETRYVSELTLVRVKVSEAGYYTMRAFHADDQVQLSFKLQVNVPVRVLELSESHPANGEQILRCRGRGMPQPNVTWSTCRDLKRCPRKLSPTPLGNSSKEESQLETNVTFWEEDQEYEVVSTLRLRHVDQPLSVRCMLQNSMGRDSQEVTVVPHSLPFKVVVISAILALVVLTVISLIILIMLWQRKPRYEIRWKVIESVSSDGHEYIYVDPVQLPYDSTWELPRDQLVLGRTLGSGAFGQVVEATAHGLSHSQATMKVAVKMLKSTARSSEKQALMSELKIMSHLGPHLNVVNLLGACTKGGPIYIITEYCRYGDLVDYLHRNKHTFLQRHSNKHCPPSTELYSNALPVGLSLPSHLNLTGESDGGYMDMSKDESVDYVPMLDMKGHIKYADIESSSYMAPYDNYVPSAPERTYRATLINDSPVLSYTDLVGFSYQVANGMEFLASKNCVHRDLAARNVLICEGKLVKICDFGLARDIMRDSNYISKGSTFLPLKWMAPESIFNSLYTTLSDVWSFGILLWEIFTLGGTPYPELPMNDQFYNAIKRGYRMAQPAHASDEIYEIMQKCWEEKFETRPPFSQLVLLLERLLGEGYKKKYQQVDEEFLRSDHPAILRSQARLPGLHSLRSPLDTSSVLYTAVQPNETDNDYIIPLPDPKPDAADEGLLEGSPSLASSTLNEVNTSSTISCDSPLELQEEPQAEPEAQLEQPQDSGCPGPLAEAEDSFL
Sequence of VEGFR2, unphosphorylated (P35968 20-1356): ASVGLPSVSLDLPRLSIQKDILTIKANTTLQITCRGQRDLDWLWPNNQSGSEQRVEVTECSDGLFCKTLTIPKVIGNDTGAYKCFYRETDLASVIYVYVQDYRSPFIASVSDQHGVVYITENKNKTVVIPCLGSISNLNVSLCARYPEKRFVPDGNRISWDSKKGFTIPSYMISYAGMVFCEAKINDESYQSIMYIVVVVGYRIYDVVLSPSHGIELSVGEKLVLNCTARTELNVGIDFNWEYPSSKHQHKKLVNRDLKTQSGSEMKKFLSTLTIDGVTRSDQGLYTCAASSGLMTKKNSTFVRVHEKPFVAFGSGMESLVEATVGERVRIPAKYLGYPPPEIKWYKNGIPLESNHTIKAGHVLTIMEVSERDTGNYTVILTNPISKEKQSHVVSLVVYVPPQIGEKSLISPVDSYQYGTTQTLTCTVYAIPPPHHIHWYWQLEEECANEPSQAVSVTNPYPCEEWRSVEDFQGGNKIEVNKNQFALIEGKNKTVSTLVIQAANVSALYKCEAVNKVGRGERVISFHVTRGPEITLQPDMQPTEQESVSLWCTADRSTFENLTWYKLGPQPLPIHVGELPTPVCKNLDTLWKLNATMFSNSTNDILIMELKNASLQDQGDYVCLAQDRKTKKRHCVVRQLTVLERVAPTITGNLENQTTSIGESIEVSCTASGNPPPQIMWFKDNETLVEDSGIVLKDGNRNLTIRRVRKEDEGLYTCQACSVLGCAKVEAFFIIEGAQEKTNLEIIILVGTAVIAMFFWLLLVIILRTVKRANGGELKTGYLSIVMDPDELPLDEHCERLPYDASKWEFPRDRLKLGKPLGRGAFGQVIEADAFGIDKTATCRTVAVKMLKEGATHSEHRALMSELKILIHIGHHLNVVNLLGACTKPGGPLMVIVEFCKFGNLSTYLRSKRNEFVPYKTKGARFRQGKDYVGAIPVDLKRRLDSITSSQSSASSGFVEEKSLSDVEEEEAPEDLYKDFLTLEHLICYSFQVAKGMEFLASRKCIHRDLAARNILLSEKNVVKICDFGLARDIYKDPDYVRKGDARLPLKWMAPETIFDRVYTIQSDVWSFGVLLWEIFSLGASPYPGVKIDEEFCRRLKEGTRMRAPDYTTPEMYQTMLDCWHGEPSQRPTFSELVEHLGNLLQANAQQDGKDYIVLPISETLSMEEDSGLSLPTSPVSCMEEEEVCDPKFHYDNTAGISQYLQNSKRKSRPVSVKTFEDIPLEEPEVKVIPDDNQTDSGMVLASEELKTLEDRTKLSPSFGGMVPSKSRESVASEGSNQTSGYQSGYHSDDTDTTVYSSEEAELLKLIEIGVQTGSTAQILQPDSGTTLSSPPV
Sequence of His6-TEV-PDGFRβ (557-1016) (P09619 557-1016): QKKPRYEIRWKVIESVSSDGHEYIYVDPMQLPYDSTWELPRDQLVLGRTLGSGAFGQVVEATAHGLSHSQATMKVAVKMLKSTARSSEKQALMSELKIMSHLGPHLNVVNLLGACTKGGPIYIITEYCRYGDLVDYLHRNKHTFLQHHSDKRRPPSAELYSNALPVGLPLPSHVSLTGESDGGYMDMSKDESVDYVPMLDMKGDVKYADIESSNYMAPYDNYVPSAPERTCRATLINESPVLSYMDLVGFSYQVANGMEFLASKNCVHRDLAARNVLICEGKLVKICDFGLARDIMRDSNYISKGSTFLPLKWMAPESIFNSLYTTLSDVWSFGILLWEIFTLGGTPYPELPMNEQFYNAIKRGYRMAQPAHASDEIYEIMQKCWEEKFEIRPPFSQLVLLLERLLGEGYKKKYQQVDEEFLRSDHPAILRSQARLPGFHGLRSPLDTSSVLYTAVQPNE

Turning to `Cc1ncc(NC(=O)CN2C[C@H](C)O[C@@H](C)C2)cc1NC(=O)c1cnn2cc(-c3ccc[nH]c3=O)sc12` (relative stereo) [Example 370, N-(5-(2-(trans-2,6-dimethylmorpholino)acetamido)-2-methylpyridin-3-yl)-2-(2-oxo-1,2-dihydropyridin-3-yl)pyrazolo[5,1-b]thiazole-7-carboxamide], the IC50 on PDGFRβ (PDGFR Cellular IC50) was 544 nM; against VEGFR2, unphosphorylated, over 7500 nM; in experiment [1], 1 nM.

As for `COCCn1cc(-c2cn3ncc(C(=O)Nc4cc(NC(=O)CN5CC[C@@H](C)C5)cnc4C)c3s2)cn1` (single isomer, unassigned) [Example 327, (R*)-2-(1-(2-methoxyethyl)-1H-pyrazol-4-yl)-N-(2-methyl-5-(2-(3-methylpyrrolidin-1-yl)acetamido)pyridin-3-yl)pyrazolo[5,1-b]thiazole-7-carboxamide], the 50% inhibitory concentration (IC50) on PDGFRβ (read-out: PDGFR Cellular IC50) is 9.9 nM; against VEGFR2, unphosphorylated, over 7500 nM.

Regarding `COCCn1cc(-c2cn3ncc(C(=O)Nc4cc(NC(=O)CN5CC[C@H](C)C5)cnc4C)c3s2)cn1` (single isomer, unassigned) [Example 328, (S*)-2-(1-(2-methoxyethyl)-1H-pyrazol-4-yl)-N-(2-methyl-5-(2-(3-methylpyrrolidin-1-yl)acetamido)pyridin-3-yl)pyrazolo[5,1-b]thiazole-7-carboxamide], the IC50 is 7.1 nM on PDGFRβ (read-out: PDGFR Cellular IC50) and over 7500 nM at VEGFR2, unphosphorylated.

As for `COc1ncccc1-c1cn2ncc(C(=O)Nc3cc(NC(=O)CN4C[C@H](CO)O[C@@H](C)C4)cnc3C)c2s1` (stereo in doubt) [Example 381, N-(5-(2-(cis-2-(hydroxymethyl)-6-methylmorpholino)acetamido)-2-methylpyridin-3-yl)-2-(2-methoxypyridin-3-yl)pyrazolo[5,1-b]thiazole-7-carboxamide], the IC50 at PDGFRβ (read-out: PDGFR Cellular IC50) was 16 nM; on VEGFR2, unphosphorylated, over 833 nM.

For `Cc1ncc(C(=O)NCCN2CC3CCC2CC3)cc1NC(=O)c1cnn2cc(-c3cnn(C)c3)sc12` [Example 1, N-(5-((2-(2-azabicyclo[2.2.2]octan-2-yl)ethyl)carb-amoyl)-2-methylpyridin-3-yl)-2-(1-methyl-1H-pyrazol-4-yl)pyrazolo[5,1-b]thiazole-7-carboxamide], the IC50 was 33.8 nM on PDGFRβ (PDGFR Cellular IC50); over 7500 nM on VEGFR2, unphosphorylated; 0.2 nM in experiment [1].

Consider `COc1ncccc1-c1cn2ncc(C(=O)Nc3cc(NC(=O)CN4CC(OC)C4)cnc3C)c2s1` [Example 400, N-(5-(2-(3-methoxyazetidin-1-yl)acetamido)-2-methylpyridin-3-yl)-2-(2-methoxypyridin-3-yl)pyrazolo[5,1-b]thiazole-7-carboxamide], for which the IC50 on PDGFRβ (PDGFR Cellular IC50) was 14.8 nM; against VEGFR2, unphosphorylated, over 7500 nM.

Regarding `CCOC1CN(CC(=O)Nc2cnc(C)c(NC(=O)c3cnn4cc(-c5cccnc5OC)sc34)c2)C1` [Example 401], on PDGFRβ (read-out: PDGFR Cellular IC50), the IC50 is 10.3 nM.

Take `Cc1ncc(NC(=O)CN2CCC[C@@H]2C)cc1NC(=O)c1cnn2cc(-c3cn(C)nc3C)sc12` [Example 438, (S)-2-(1,3-dimethyl-1H-pyrazol-4-yl)-N-(2-methyl-5-(2-(2-methylpyrrolidin-1-yl)acetamido)pyridin-3-yl)pyrazolo[5,1-b]thiazole-7-carboxamide]: the IC50 was 3.7 nM against PDGFRβ (PDGFR Cellular IC50) and over 7500 nM on VEGFR2, unphosphorylated.

`COC1CCN(CC(=O)Nc2cnc(C)c(NC(=O)c3cnn4cc(-c5cn(C)nc5C)sc34)c2)C1` (stereo not drawn) [Example 439, 2-(1,3-Dimethyl-1H-pyrazol-4-yl)-N-(5-(2-(3-methoxypyrrolidin-1-yl)acetamido)-2-methylpyridin-3-yl)pyrazolo[5,1-b]thiazole-7-carboxamide]: the half-inhibitory concentration (IC50) on PDGFRβ (PDGFR Cellular IC50) was 12.2 nM; against VEGFR2, unphosphorylated, over 7500 nM.

On to `Cc1ncc(NC(=O)CN2CCC[C@H]2C)cc1NC(=O)c1cnn2cc(-c3cn(C)nc3C)sc12` [Example 440, (R)-2-(1,3-dimethyl-1H-pyrazol-4-yl)-N-(2-methyl-5-(2-(2-methylpyrrolidin-1-yl)acetamido)pyridin-3-yl)pyrazolo[5,1-b]thiazole-7-carboxamide], for which the IC50 on PDGFRβ (PDGFR Cellular IC50) is 1.6 nM; against VEGFR2, unphosphorylated, over 7500 nM.

The IC50 is the concentration needed to halve the response being measured.
